Measurements published in patent US6172262A, “Amphiphilic agents for membrane protein solubilization” (priority 1999, dated 2001).
Converted amounts (≈) assume the structure as drawn. “And” between values parts separate entries of the source, which are not always exact repeats. Equal values may be shown once. “Also recorded” adds a separate entry of the source.

Tests used:
[1] = CMC by uptake of fluorescent dye 1,6-diphenylhexatriene, fluorescence spectroscopy; assay type: physicochemical; details: for CMC (Critical Micelle Concentration): uptake of 1,6-diphenylhexatriene, 25 mM sodium phosphate pH 6.9, Table 1 and text; for CMC: Table 2, dye uptake versus concentration monitored by fluorescence spectroscopy; for CMC of N-oxide relative to corresponding hydrochloride salt: 4.65 vs 4.78, 4.66 vs 4.79
Experimental: The CMCs of detergents 4.65-4.72 were determined by monitoring the uptake of a fluorescent dye (1,6-diphenylhexatriene) with increasing detergent concentration (Table 1, CMC's determined by dye uptake versus concentration monitored by fluorescence spectroscopy). The CMCs of N-oxide isomers 4.65, 4.67, and 4.68 are very similar: 3 mM, 3 mM, and […], respectively. […] The CMCs for the N-oxides 4.65 and 4.66 are twice the CMCs of the corresponding hydrochloride salts (4.78 and 4.79). The hydrochloride salts were formed from the amine precursors to the N-oxides. Most cationic detergents have CMCs that are much higher than non-ionic or zwitterionic analogs. For example, dodecylammonium bromide has a CMC of 15 mM which is >7 times larger than the CMC of the N-oxide analog (LDAO, CMC=2 mM).
The CMCs of 4.100 and 4.104 were determined by the uptake of the fluorescent dye 1,6-diphenylhexatriene. The CMCs are 0.125 mM and 0.700 mM respectively. These values are substantially lower than the CMC of 4.65, which was determined to be 3 mM.
The CMC of a detergent can be determined experimentally by measuring the solubilization of a water-insoluble dye or fluorophore while varying the concentration of detergent. CMC may also be determined by measuring the diminution of the surface tension of an aqueous solution as a function of detergent concentration. (CMC's determined by either method correlate with each other.) The CMC is determined by extrapolating the plot of solubilization vs. concentration (or surface tension vs. concentration) in the two linear regions above and below the CMC. Where the two lines intersect is the CMC. In this Example, CMC's were determined by the method of Nugebauer, J. M. (1990), Methods in Enzymology, 182:239-253:
Tripod solutions in aqueous solutions containing 25 mM sodium phosphate pH 6.9 were prepared and transferred to screw-capped vials, and […] of a 1,6-diphenylhexatriene solution (DPH, 3.125 mM DPH in THF) was added. The solutions were vortexed at room temperature for 30 seconds. The solutions were placed into a 3 mm×3mm quartz cell and the fluorescence spectrum was obtained (excitation 358 nm, emission 430 nm, excitation slit width=1 mm, emission slit width=20 nm, PMT voltage=700). The fluorescence intensity of each sample was plotted against amphiphile concentration. […] The data points immediately surrounding the CMC were not considered due to non-linear behavior. See Tables 1 and 2, above, for the results.

[2] = Aqueous solubility; assay type: physicochemical; details: for solubility on adding small amounts of ethanol or ethyl acetate: aqueous suspensions plus ethanol or ethyl acetate
[3] = tested on: BR; experiment: Loss of exciton coupling of BR by CD spectra (rate of solubilization); parameters: species or system Halobacterium; details: room temperature
Experimental: Tripod detergents 4.65 and 4.66 were tested in this fashion and shown to solubilize BR from the PM quite rapidly. To measure whether the solublized BR was present in a monomeric state, CD spectra of the supernatants were taken. When suspended within the native PM, BR yields a distinct sigmoidal CD spectrum due to exciton coupling between adjacent retinal chromophores. It has been shown that the strength of the exciton coupling is directly proportional to the concentration of retinal chromophore in the PM. Because the exciton coupling requires retinals to be held in a fixed geometry (as when suspended in the PM), the solubilization of BR can be measured in terms of the loss of exciton coupling. […] Exciton coupling was completely gone after less than 10 minutes for samples solubilized by 4.65 and 4.66, a time period which is faster than the time required to obtain a CD spectrum.

[4] = molecular target: T1, Bacteriorhodopsin (BR) (Halobacterium salinarum, UniProt P02945); experiment: Solubilization of bacteriorhodopsin (BR) from purple membrane (PM)
T1 construct: We used BR solubilization from the PM to evaluate tripod detergents; endogenous in cells
T1 sequence (P02945 14-261 limits assumed): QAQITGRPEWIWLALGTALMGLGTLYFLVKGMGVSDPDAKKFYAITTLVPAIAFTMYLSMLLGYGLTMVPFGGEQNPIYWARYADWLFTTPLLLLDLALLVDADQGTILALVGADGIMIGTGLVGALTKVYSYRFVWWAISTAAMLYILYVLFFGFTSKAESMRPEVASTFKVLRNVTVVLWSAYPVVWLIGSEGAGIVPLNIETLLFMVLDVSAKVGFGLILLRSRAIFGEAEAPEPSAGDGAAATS
Experimental: We used BR solubilization from the PM to evaluate tripod detergents synthesized using the modular synthetic approach described above. The retinal chromophore of BR allowed us to quantify solubilized material by UV. Solubilized BR is defined as the intact protein left in the supernatant after a sample is centrifuged for 30 minutes at 300,000 g. The percent BR solubilized is determined by dividing the absorbance of the supernatant by the absorbance of the solution before centrifugation.
Solubilization experiments were conducted by making a series of solutions with constant concentration of PM and varying the concentration of detergent. […] The absorbance at the λmax (between 540 nm and 570 nm) was then measured, and immediately afterward the samples were centrifuged for 30 minutes at 300,000 g. The supernatant was carefully removed so as not to disturb pelleted material. Absorbance measurements were made again, and the ratio of the supernatant absorbance to the absorbance before centrifugation provided the percent solubilization.

Structure (SMILES)	CMC (Critical Micelle Concentration) [1]	CMC [1]	other results
C[N+](C)([O-])CCN(CC[N+](C)(C)[O-])C(=O)CC(c1ccc(-c2ccccc2)cc1)(c1ccc(-c2ccccc2)cc1)c1ccc(-c2ccccc2)cc1 [Detergent 4.62]			solubility on adding small amounts of ethanol or ethyl acetate [2]: greatly increased; solubility in water (in words) ([2]; water): insoluble in water
CC(C)(C)c1ccc(C(CC(=O)N(CC[N+](C)(C)[O-])CC[N+](C)(C)[O-])(c2ccc(C(C)(C)C)cc2)c2ccc(C(C)(C)C)cc2)cc1 [Detergent 4.59]			solubility on adding small amounts of ethanol or ethyl acetate [2]: greatly increased; solubility in water (in words) ([2]; water): insoluble in water
CN(C)CCCN(CCCN(C)C)C(=O)CC(c1ccc(-c2ccccc2)cc1)(c1ccc(-c2ccccc2)cc1)c1ccc(-c2ccccc2)cc1 [Detergent 4.90]		insol.	
CN(C)CCCN(CCCN(C)C)C(=O)CC1(C2CCCCC2)CCCCCCC1 [Detergent 4.95]		24 mM	
CCCCC(CCCC)(CCCC)CC(=O)N(CCCN(C)C)CCCN(C)C [Detergent 4.93]		6 mM	
CN(C)CCCN(CCCN(C)C)C(=O)CC(c1ccc(C(C)(C)C)cc1)(c1ccc(C(C)(C)C)cc1)c1ccc(C(C)(C)C)cc1 [Detergent 4.91]		insol.	
CCCCC(CCCC)(CC(=O)N(CCCN(C)C)CCCN(C)C)C1CCCCC1 [Detergent 4.96]		4.6 mM	
CCCCCCCCCCc1ccc(C(=O)N(CC)CC[N+](C)(C)[O-])cc1 [Detergent 4.100]	0.125 mM		
CN(C)CCCN(CCCN(C)C)C(=O)CC(c1ccccc1)(c1ccccc1)c1ccc(C(C)(C)C)cc1 [Detergent 4.89]		3 mM	
CCCCCCC(CC(=O)N(CCCN(C)C)CCCN(C)C)(c1ccccc1)c1ccccc1 [Detergent 4.87]		4 mM	
CCCCCCC(CC(=O)N(CC[N+](C)(C)[O-])CC[N+](C)(C)[O-])(c1ccccc1)c1ccccc1 [Detergent 4.55]			BR solubilization (in words) [4]: readily solubilize BR
CN(C)CCCN(CCCN(C)C)C(=O)CC1(c2ccccc2)CCCCCCC1 [Detergent 4.85]		80 mM	
CCCCC(CCCC)(CC(=O)NC(C)(C)CN(C)C)c1ccccc1 [Detergent 4.81]	Does not take up dye up to solubility limit		solubility ([2]; water, Table 1, no dye uptake up to this limit, read-out: solubility limit): ~12.5 mM (≈ 4510 µg/mL)
CCCCC(CCCC)(CCOC1O[C@H](CO)[C@@H](O[C@H]2O[C@H](CO)[C@@H](O)[C@H](O)[C@H]2O)[C@H](O)[C@H]1O)c1ccccc1 (stereo partly shown) [A.2.5]			BR solubilized from the purple membrane [4]: approximately 50%; solubility in water (in words) ([2]; water): sparingly soluble in water
CN(C)CCCN(CCCN(C)C)C(=O)CC(c1ccccc1)(c1ccccc1)c1ccccc1 [Detergent 4.88]		30 mM	
CCCCCCC(CCCC)(CCCC)CC(=O)N(CCCN(C)C)CCCN(C)C [Detergent 4.92]		1 mM	
CCCCC(CC(=O)N(CC[N+](C)(C)[O-])CC[N+](C)(C)[O-])(C1CCCCC1)C1CCCCC1 [Detergent 4.56]			BR solubilization (in words) [4]: readily solubilize BR
CCCCC(CCCC)(CC(=O)N(CC[N+](C)(C)[O-])CC[N+](C)(C)[O-])c1ccccc1 [Detergent 4.37]			BR solubilization ([4]; after mixing for approximately 20 hrs): greater than 90%; BR solubilization ([4]; first batch (about twice as much impurity 4.63)): > 90%; BR solubilization ([4]; second batch): < 50% and 50%
CCCCC(CC(=O)N(CCCN(C)C)CCCN(C)C)(C1CCCCC1)C1CCCCC1 [Detergent 4.94]		3 mM	
CCCCCCC(CCCC)(CCCC)CC(=O)N(CC[N+](C)(C)[O-])CC[N+](C)(C)[O-] [Detergent 4.39]			BR solubilization ([4]; after 11 days): approximately 30%

Now from value to compound, other results behind:

CMC (Critical Micelle Concentration) [1]	CMC [1]	Structure (SMILES)	other results
3 mM		CCCCC(CCCC)(CC(=O)N(C)CCC[N+](C)(C)[O-])c1ccccc1 [Detergent 4.67]	
0.700 mM		CCCCC(C)(CCCC)c1ccc(C(=O)N(CC)CC[N+](C)(C)[O-])cc1 [Detergent 4.104]	
	21 mM	CCCCC(CC(=O)N(CCCN(C)C)CCCN(C)C)(c1ccccc1)c1ccccc1 [Detergent 4.86]	
24 mM	24 mM	CCCCC(CCCC)(CC(=O)N(CCCN(C)C)CCCN(C)C)c1ccccc1 [Detergent 4.84]	
4.5 mM		CCCCC(CCCC)(CC(=O)NCCC[N+](C)(C)[O-])c1ccccc1 [Detergent 4.66]	CMC of N-oxide relative to corresponding hydrochloride salt [1]: twice; rate of BR solubilization (in words) [3]: quite rapidly; also recorded: too rapid to monitor the loss of exciton coupling; time to complete loss of exciton coupling [3]: less than 10 minutes; BR solubilization (in words) [4]: readily solubilize BR; also recorded: can solubilize BR
1.2 mM		CCCCC(CCCC)(CC(=O)NC(C)(C)C[N+](C)(C)[O-])c1ccccc1 [Detergent 4.68]	
1.3 mM		CCCCC(CCCC)(CC(=O)N(CC)CCN(C)C)c1ccccc1 [Detergent 4.78]	
5 mM		CCCCC(CCCC)(CCN(C)C)c1ccccc1 [Detergent 4.82]	
2.8 mM		CCCCC(CCCC)(CC(=O)NCCCN(C)C)c1ccccc1 [Detergent 4.79]	
3 mM		CCCCC(CCCC)(CC(=O)N(CC)CC[N+](C)(C)[O-])c1ccccc1 [Detergent 4.65]	CMC of N-oxide relative to corresponding hydrochloride salt [1]: twice; rate of BR solubilization (in words) [3]: quite rapidly; also recorded: too rapid to monitor the loss of exciton coupling; time to complete loss of exciton coupling [3]: less than 10 minutes; BR solubilization (in words) [4]: can solubilize BR; BR solubilization ([4]; >99% pure by HPLC): greater than 90%
7.5 mM		CCCCC(CCCC)(CC(=O)NCC(C)(C)C[N+](C)(C)[O-])c1ccccc1 [Detergent 4.70]	CMC of 4.70 relative to that of 4.68 [1]: six times larger
2.5 mM		CCCCC(CCCC)(CC[N+](C)(C)[O-])c1ccccc1 [Detergent 4.69]	
10 mM		CCCCC(CCCC)(CC(=O)N(CCC[N+](C)(C)[O-])CCC[N+](C)(C)[O-])c1ccccc1 [Detergent 4.71]	
14.7 mM		CCCCC(CCCC)(CC(=O)NCC(C)(C)CN(C)C)c1ccccc1 [Detergent 4.83]	
5 mM		CCCCC(CCCC)(CC(=O)N(C)CCCN(C)C)c1ccccc1 [Detergent 4.80]	
